Measured values: US20230151025A1, “SUBSTITUTED THIAZOLOPYRIDINES, SALTS THEREOF AND THEIR USE AS HERBICIDALLY ACTIVE SUBSTANCES” (Bayer Aktiengesellschaft, priority 2020, published 2023)

Legend:
Assay type in all cases: in vivo
Setaria viridis (SETVI) [1] = experiment: Herbicidal pre-emergence action (A), 1280 g/ha; settings: visual grading after ca. 3 weeks vs untreated controls
How it was run: (§1)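 Pre-emergence soil-surface spray, 600 l/ha water, 0.5% additive, WP or EC formulation. Sandy loam, double sowing per pot, greenhouse under optimum growth. Visual % damage at ~3 wk vs untreated; 100% = plants died off.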

Veronica persica (VERPE) [2] = experiment: Herbicidal pre-emergence action (A), 1280 g/ha; settings: visual grading after ca. 3 weeks vs untreated controls
How it was run: as §1

[3] = system: Digitaria sanguinalis (DIGSA); experiment: Herbicidal pre-emergence action (A), 1280 g/ha; settings: visual grading after ca. 3 weeks vs untreated controls, 100% = plants have died off, 0% = as control plants
How it was run: as §1

Poa annua (POAAN) [4] = experiment: Herbicidal pre-emergence action (A), 1280 g/ha; settings: visual grading after ca. 3 weeks vs untreated controls, 100% = plants have died off, 0% = as control plants
How it was run: as §1

Lolium rigidum (LOLRI) [5] = experiment: Herbicidal pre-emergence action (A), 1280 g/ha; settings: visual grading after ca. 3 weeks vs untreated controls, 100% = plants have died off, 0% = as control plants
How it was run: as §1

[6] = system: Kochia scoparia (KCHSC; Bassia scoparia); experiment: Herbicidal pre-emergence action (A), 1280 g/ha; settings: visual grading after ca. 3 weeks vs untreated controls
How it was run: as §1

Stellaria media (STEME) [7] = experiment: Herbicidal pre-emergence action (A), 1280 g/ha; settings: visual grading after ca. 3 weeks vs untreated controls
How it was run: as §1

[8] = system: Amaranthus retroflexus (AMARE); experiment: Herbicidal pre-emergence action (A), 1280 g/ha; settings: visual grading after ca. 3 weeks vs untreated controls
How it was run: as §1

[9] = system: Abutilon theophrasti (ABUTH); experiment: Herbicidal pre-emergence action (A), 1280 g/ha; settings: visual grading after ca. 3 weeks vs untreated controls, 100% = plants have died off, 0% = as control plants
How it was run: as §1

[10] = system: Echinochloa crus-galli (ECHCG); experiment: Herbicidal pre-emergence action (A), 1280 g/ha; settings: visual grading after ca. 3 weeks vs untreated controls, 100% = plants have died off, 0% = as control plants
How it was run: as §1

Veronica persica (VERPE) [11] = experiment: Herbicidal post-emergence action (B), 1280 g/ha
How it was run: (§2)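 Percent activity is a visual score taken about 3 weeks after treatment, relative to untreated plants, where 100% means the plants died and 0% means no difference from controls. Plants were sprayed on green parts at the one-leaf stage with an aqueous suspension or emulsion containing 0.5% additive at 600 L/ha.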

[12] = system: Kochia scoparia (KCHSC; Bassia scoparia); experiment: Herbicidal post-emergence action (B), 1280 g/ha
How it was run: as §2

[13] = system: Matricaria inodora (MATIN); experiment: Herbicidal post-emergence action (B), 1280 g/ha; settings: rated visually after about 3 weeks vs untreated controls
How it was run: as §2

Stellaria media (STEME) [14] = experiment: Herbicidal post-emergence action (B), 1280 g/ha
How it was run: as §2

[15] = system: Alopecurus myosuroides (ALOMY); experiment: Herbicidal pre-emergence action (A), 1280 g/ha; settings: visual grading after ca. 3 weeks vs untreated controls, 100% = plants have died off, 0% = as control plants
How it was run: as §1

[16] = system: Digitaria sanguinalis (DIGSA); experiment: Herbicidal post-emergence action (B), 1280 g/ha; settings: rated visually after about 3 weeks vs untreated controls
How it was run: as §2

Poa annua (POAAN) [17] = experiment: Herbicidal post-emergence action (B), 1280 g/ha; settings: rated visually after about 3 weeks vs untreated controls
How it was run: as §2

Lolium rigidum (LOLRI) [18] = experiment: Herbicidal post-emergence action (B), 1280 g/ha; settings: one-leaf stage, rated after about 3 weeks vs untreated controls, 100% activity = the plants have died, 0% = like control plants
How it was run: as §2

[19] = system: Amaranthus retroflexus (AMARE); experiment: Herbicidal post-emergence action (B), 1280 g/ha; settings: rated visually after about 3 weeks vs untreated controls
How it was run: as §2

[20] = system: Abutilon theophrasti (ABUTH); experiment: Herbicidal post-emergence action (B), 1280 g/ha; settings: rated visually after about 3 weeks vs untreated controls
How it was run: as §2

[21] = system: Alopecurus myosuroides (ALOMY); experiment: Herbicidal post-emergence action (B), 1280 g/ha; settings: rated visually after about 3 weeks vs untreated controls
How it was run: as §2

[22] = system: Amaranthus retroflexus (AMARE); experiment: Herbicidal post-emergence action (D), 320 g/ha; settings: ca. 3 weeks
Text: (§3) ABUTH: Abutilon theophrasti AGSTE: Agrostis tenuis ALOMY: Alopecurus myosuroides AMARE Amaranthus retroflexus DIGSA: Digitaria sanguinalis ECHCG: Echinochloa crus-galli KCHSC: Kochia scoparia LOLRI: Lolium rigidum MATIN: Matricaria inodora POAAN: Poa annua POLCO: Polygonum convolvulus SETVI: Setaria viridis STEME: Stellaria media VERPE: Veronica persica VIOTR: Viola tricolor
(§4) Seeds of mono- and dicotyledonous weed plants and crop plants were sown, in plastic or organic planting pots, in sandy loam, covered with soil and grown in a greenhouse under controlled growth conditions. 2 to 3 weeks after sowing, the test plants were sprayed in the single-leaf stage. The compounds according to the invention, formulated in form of wettable powders (WP) or as emulsifiable concentrates (EC), were sprayed onto the green plant parts as aqueous suspension or emulsion, with the addition of 0.5% of an additive, at an application rate of 600 l of water/ha (converted). The test plants were placed in the greenhouse for ca. 3 weeks under optimum growth conditions, and then the effect of the preparations was assessed visually in comparison with untreated controls (herbicidal effect in percent (%): 100% effect=plants have died off, 0% effect=as control plants).
(§5) Tables D1 to D13 below show the effects of selected compounds of the general formula (I) according to table 1 on various harmful plants and an application rate corresponding to 320 g/ha obtained by the experimental procedure mentioned above.

Setaria viridis (SETVI) [23] = experiment: Herbicidal pre-emergence action (C), 320 g/ha; settings: ca. 3 weeks
Text: as §3
(§6) Seeds of mono- and dicotyledonous weed plants and crop plants were sown, in plastic or organic planting pots, in sandy loam and covered with soil. The compounds according to the invention, formulated in the form of wettable powders (WP) or as emulsifiable concentrates (EC), were applied to the surface of the covering soil as aqueous suspension or emulsion, with the addition of 0.5% of an additive, at an application rate of 600 l of water/ha (converted).
(§7) Following treatment, the pots were placed in a greenhouse and kept under optimum growth conditions for the test plants. The visual grading of the damage to the test plants was carried out after ca. 3 weeks in comparison to untreated controls (herbicidal effect in percent (%): 100% effect=plants have died off, 0% effect=as control plants).
(§8) Tables C1 to C13 below show the effects of selected compounds of the general formula (I) according to table 1 on various harmful plants and an application rate corresponding to 320 g/ha obtained by the experimental procedure mentioned above.

Veronica persica (VERPE) [24] = experiment: Herbicidal pre-emergence action (C), 320 g/ha; settings: ca. 3 weeks
Text: as §3, §6, §7, §8

[25] = system: Amaranthus retroflexus (AMARE); experiment: Herbicidal pre-emergence action (C), 320 g/ha; settings: ca. 3 weeks
Text: as §3, §6, §7, §8

[26] = system: Alopecurus myosuroides (ALOMY); experiment: Herbicidal pre-emergence action (C), 320 g/ha; settings: ca. 3 weeks
Text: as §3, §6, §7, §8

[27] = system: Matricaria inodora (MATIN); experiment: Herbicidal pre-emergence action (A), 1280 g/ha; settings: visual grading after ca. 3 weeks vs untreated controls
How it was run: as §1

Setaria viridis (SETVI) [28] = experiment: Herbicidal post-emergence action (B), 1280 g/ha; settings: rated visually after about 3 weeks vs untreated controls
How it was run: as §2

[29] = system: Echinochloa crus-galli (ECHCG); experiment: Herbicidal post-emergence action (B), 1280 g/ha; settings: rated visually after about 3 weeks vs untreated controls
How it was run: as §2

Lolium rigidum (LOLRI) [30] = experiment: Herbicidal pre-emergence action (C), 320 g/ha; settings: ca. 3 weeks
Text: as §3, §6, §7, §8

[31] = system: Matricaria inodora (MATIN); experiment: Herbicidal pre-emergence action (C), 320 g/ha; settings: ca. 3 weeks
Text: as §3, §6, §7, §8

[32] = system: Echinochloa crus-galli (ECHCG); experiment: Herbicidal pre-emergence action (C), 320 g/ha; settings: ca. 3 weeks
Text: as §3, §6, §7, §8

[33] = system: Echinochloa crus-galli (ECHCG); experiment: Herbicidal post-emergence action (D), 320 g/ha; settings: ca. 3 weeks
Text: as §3, §4, §5

Setaria viridis (SETVI) [34] = experiment: Herbicidal post-emergence action (D), 320 g/ha; settings: ca. 3 weeks
Text: as §3, §4, §5

Veronica persica (VERPE) [35] = experiment: Herbicidal post-emergence action (D), 320 g/ha; settings: ca. 3 weeks
Text: as §3, §4, §5

| SMILES | herbicidal effect SETVI (Setaria viridis (SETVI) [1]) [%] | herbicidal effect VERPE (Veronica persica (VERPE) [2]) [%] | POAAN, herbicidal effect in percent (%) (Poa annua (POAAN) [4]) | LOLRI, herbicidal effect in percent (%) (Lolium rigidum (LOLRI) [5]) | herbicidal effect KCHSC [6] [%] | herbicidal effect STEME (Stellaria media (STEME) [7]) [%] | herbicidal effect AMARE [8] [%] | ABUTH, herbicidal effect in percent (%) [9] [%] | ECHCG, herbicidal effect in percent (%) [10] [%] | herbicidal effect VERPE (Veronica persica (VERPE) [11]) [%] | herbicidal effect KCHSC [12] [%] | herbicidal effect STEME (Stellaria media (STEME) [14]) [%] | ALOMY, herbicidal effect in percent (%) [15] [%] | herbicidal activity POAAN (Poa annua (POAAN) [17]) [%] | herbicidal activity AMARE [19] [%] | herbicidal activity ALOMY [21] [%] | herbicidal effect SETVI (Setaria viridis (SETVI) [23]) [%] | herbicidal effect AMARE [25] [%] | herbicidal effect ALOMY [26] [%] | herbicidal effect MATIN [27] [%] | other results |
| --- | --- | --- | --- | --- | --- | --- | --- | --- | --- | --- | --- | --- | --- | --- | --- | --- | --- | --- | --- | --- | --- |
| Cc1cc2scnc2nc1-c1ccccc1C(F)(F)F [Example I-064] | 100 | 90 | 100 | 100 | 100 | 100 | 100 | 90 | 100 | 90 | 100 | 100 | – | – | – | – | – | – | – | – | DIGSA, herbicidal effect in percent (%) [3]: 100%; herbicidal activity MATIN [13]: 100% |
| Fc1cccc(-c2nc3ncsc3cc2Cl)c1 [Example I-068] | 100 | 90 | 100 | 100 | 100 | 100 | 90 | – | 100 | 100 | 100 | 90 | 100 | 100 | 90 | 90 | 100 | 90 | 100 | – | DIGSA, herbicidal effect in percent (%) [3]: 100%; herbicidal activity DIGSA [16]: 100%; LOLRI, activity rated visually (%) (Lolium rigidum (LOLRI) [18]): 90%; herbicidal activity ABUTH [20]: 90%; herbicidal effect AMARE [22]: 90%; herbicidal effect VERPE (Veronica persica (VERPE) [24]): 80% |
| Fc1cccc(-c2nc3ncsc3cc2Cl)c1F [Example I-114] | 100 | 100 | 100 | 100 | 90 | 90 | 90 | 90 | 100 | 90 | 90 | – | 100 | – | 90 | 90 | 90 | 90 | 90 | 90 | herbicidal activity SETVI (Setaria viridis (SETVI) [28]): 90%; herbicidal activity ABUTH [20]: 90%; herbicidal activity ECHCG [29]: 90%; herbicidal effect VERPE (Veronica persica (VERPE) [24]): 80%; herbicidal effect LOLRI (Lolium rigidum (LOLRI) [30]): 100%; herbicidal effect MATIN [31]: 80%; herbicidal effect ECHCG [32]: 100% |
| Cc1cscc1-c1ccc2scnc2n1 [Example I-134] | 100 | – | 90 | 100 | – | 100 | – | – | – | – | – | – | 90 | 90 | 90 | – | – | – | – | 90 | LOLRI, activity rated visually (%) (Lolium rigidum (LOLRI) [18]): 90% |
| Cc1sccc1-c1nc2ncsc2cc1Br [Example I-135] | 100 | 90 | 100 | 100 | 90 | 90 | 90 | – | 100 | 90 | 90 | – | 90 | 90 | 90 | 90 | 100 | 90 | 100 | 100 | herbicidal activity MATIN [13]: 90%; herbicidal effect ECHCG [33]: 80%; herbicidal effect VERPE (Veronica persica (VERPE) [24]): 80%; herbicidal effect LOLRI (Lolium rigidum (LOLRI) [30]): 100%; herbicidal effect MATIN [31]: 80%; herbicidal effect ECHCG [32]: 100% |
| Clc1cc2scnc2nc1-c1ccsc1Cl [Example I-190] | 100 | 90 | 100 | 100 | 90 | 90 | 90 | 90 | 100 | 100 | 90 | 90 | 100 | 100 | – | 100 | 100 | 90 | 100 | 100 | herbicidal activity ECHCG [29]: 100%; herbicidal effect SETVI (Setaria viridis (SETVI) [34]): 80%; herbicidal effect VERPE (Veronica persica (VERPE) [35]): 80%; herbicidal effect AMARE [22]: 80%; herbicidal effect ECHCG [33]: 90%; herbicidal effect LOLRI (Lolium rigidum (LOLRI) [30]): 100%; herbicidal effect MATIN [31]: 80%; herbicidal effect ECHCG [32]: 100% |
